# Data taken from ChEMBL document CHEMBL3507680, “University of Dundee, Gates Library screen for HepG2 cell viability”.
# Assay: Human HepG2 cell viability assay in 384 well format
# Format: toxicity, cell-based
# Parameters: dose 125 nL, time 70.5 hour; cytotoxicity at 70.5 h: concentration not given beside the values
# Details: HepG2 cells, read-out: Inhibition
row,SMILES,cytotoxicity at 70.5 h [%]
1,COc1cccc(CNC2CCSC2)c1OC (configuration not stated),-7.09
2,CC(C)N(CC(=O)Nc1ccc(Br)cc1Cl)Cc1cccnc1,38.4
3,Cc1c(C(=O)N2C[C@@H](CN(C)CCO)[C@@H](CO)C2)sc2ccccc12,-9.44
4,Cn1cc(C2=CCN(CCCOc3ccc(C(N)=O)cc3)CC2)cn1,-11.2
5,Cc1cc(C(O)CCNC(=O)COc2ccccc2C)c(C)o1 (configuration not stated),-2.27
6,CCNc1ccnc(N2CCN(Cc3ncccc3C)CC2)n1,3.6
7,O=c1oc(-c2cccs2)nn1CC(O)c1ccccc1F (configuration not stated),-4.66
8,COc1c(CNC2CCSc3ccc(F)cc32)c(C)nn1C (configuration not stated),25.9
9,O=S(=O)(Cc1ccccc1)NCCNc1ccc(-n2cccc2)nn1,-13.6
10,CNCC(=O)N1CC(c2cc(Nc3nc(C)cs3)nc(C)n2)C1,-12.3
11,CCOc1ccc(NC2CCN(C)C2=O)cn1 (configuration not stated),-3.61
12,COCCN1C(=O)[C@H]2CC[C@@H]1CN(c1nccc(C)n1)C2,-9.1
13,O=C1CCCN1CCCNCc1cc(O)c2cccc(F)c2n1,-3.49
14,CNC(=O)[C@@H]1CC[C@@H]2[C@@H](CCN2Cc2ccccc2F)O1,-4.13
15,CC(Cn1ccnc1)NC(=O)NCCN1CCc2ccccc2C1 (configuration not stated),0.814
16,Cc1cnc(C(=O)N2CCC3(CC2)C(=O)NCCN3CC(C)C)cn1,-2.5
17,CC(CN1CCOC1=O)NC(=O)c1ccccc1Oc1ccccc1 (configuration not stated),27.1
18,COc1ccc(NC(=O)NC(C)(C)c2noc(C)n2)cc1,0.532
19,COc1cccc(CNc2cc(C)nc(-c3ccncc3)n2)c1OC,-6.44

row,SMILES,cytotoxicity at 70.5 h [%]
1,Nc1nnc(CCCNc2ncnc3c2CCN(C(=O)C2CC2)C3)s1,-12
2,COCCCN1CC2(CCCN(c3ncc(Cl)cc3F)C2)CCC1=O (configuration not stated),3.03
3,O=C(c1c[nH]cn1)N1CCC(F)(F)C2(CCN(c3cnccn3)C2)C1 (configuration not stated),0.139
4,Cc1cc(CN(C)CCN(C)c2ccccc2)no1,0.0635
5,CC1CN(c2ccc(NC(=O)Cn3cccn3)cc2)CCO1 (configuration not stated),-5.08
6,Cc1nc(CNc2nc3c(s2)c(C)nn3C)cs1,-8.75
7,CCc1noc(C2CCCCN2C(=O)c2ccc(C)o2)n1 (configuration not stated),14
8,CC(C)NC(=O)C1(Cc2ccccc2-c2ccccc2)CCCNC1 (configuration not stated),-1.97
9,CC(Oc1cc(Cl)cc(Cl)c1)C(=O)NCCC(=O)N(C)C (configuration not stated),-6.44
10,Cc1ccc(S(=O)(=O)c2ncccc2CN2CCCCC2)cc1,-21
11,CC(c1ccncn1)N(C)Cc1cc(O)c2cc(F)ccc2n1 (configuration not stated),-8.14
12,CC(C)S(=O)(=O)C(C)C(=O)NCc1ccccc1COc1ccccc1 (configuration not stated),-11
13,Cc1ncc(C(=O)NCCNc2ncnc3sccc23)s1,-2.99
14,O=C([C@H]1CN(Cc2nccs2)C[C@H]2OCC[C@@H]12)N1CCCCO1,-10.9
15,CNc1nc(CNC(=O)Nc2cccc(Cl)c2Cl)cs1,-1.34
16,Cc1nc(C)n(CC2CCCCN2CCOc2ccc(C#N)cc2)n1 (configuration not stated),-9.43
17,Cn1cc(-c2nnn3c2COC(CNCc2ccccn2)C3)cn1 (configuration not stated),14.6
18,O=C(NCCN1CCNCC1)c1c(O)c2ccccc2[nH]c1=O,36.3
19,CN(C)CCN1CCO[C@H]2CCN(C(=O)c3cccs3)CC[C@@H]21,32.1

row,SMILES,cytotoxicity at 70.5 h [%]
1,c1cc(CNCC2Cn3nncc3CO2)co1 (configuration not stated),-6.75
2,CC(=O)NC1CCN(c2nc(N(C)C)nc3c2CCN(C(C)=O)C3)CC1,-7.29
3,CNc1cccc(C2CN(C(=O)CNS(C)(=O)=O)CCO2)n1 (configuration not stated),13
4,CSc1ccc(CNC(=O)C2CC(=O)N(C(C)(C)C)C2)cc1 (configuration not stated),-3.39
5,CCn1cc(CN2CCCN(C(=O)Cc3cccs3)CC2)cn1,28
6,CCc1ccc(S(=O)(=O)Nc2ccn(CC(=O)OC)n2)cc1,-4.63
7,Cc1cc(C)n(Cc2cccc(C(=O)NCCN3CCOCC3)c2)n1,-6.51
8,Fc1ccc(CN2CCCC(c3cc4ncccc4[nH]3)C2)cc1 (configuration not stated),3.04
9,CNS(=O)(=O)c1cccc(CNc2ccc(C#N)cn2)c1,-7.11
10,CNC(=O)c1nc(Cn2ncc3ccccc3c2=O)no1,-3.17
11,CN(C)c1nc(CNC(=O)Nc2cccc([S+](C)[O-])c2)cs1 (configuration not stated),-5.56
12,COc1ccc(CCN(C)C(C(=O)O)c2ccc(F)c(C)c2)cc1OC (configuration not stated),9.05
13,CCN(Cc1noc(C(C)(C)C)n1)Cc1ccc(C#N)cc1F,-6.26
14,CCNc1cc2c(nn1)CCN(C(=O)c1cc3cccc(C)c3o1)C2,-2.31
15,Cc1nccn1-c1ccccc1CNC(=O)c1cn(CCN)nn1,1.29
16,Cc1cnn(-c2cccc(N3CCCCC3)n2)c1,15.7
17,CSc1nccn1-c1cccc(C(=O)NCCC(=O)NC(C)C)c1,-3.09
18,O=C1OCCN1CCc1nc(-c2cc3c4c(c2)CC(=O)N4CCC3)cs1,10.6
19,c1cc(CO[C@@H]2CC[C@H]3[C@H]2OCCN3Cc2ccoc2)ccn1,-14.9
